Tests used:
WM793 cells = test: Cell proliferation assay (CellTiter-Glo); format: cell-based; conditions: Homo sapiens, WM793, 72 h, 3 d, read-out: Cell proliferation qualified AC50
Description: (§1) Cancer cell media was prepared by adding 500 mL of RPMI (ThermoFisher cat ##22400-089) and 10% Fetal Bovine Serum (Gibco) for WM793 cells (ATCC Cat #CRL-2806, RRID: CVCL 8787) and F12K (Thermo Fisher cat #21127-022, 500 mL; or 21127-030, 10×500 mL)+10% FBS for PC3 (ATCC CRL-1435) cells. The entire media with supplements was filter sterilized through a 0.4 μm bottle top filter system. Cancer cell lines were detached from traditional cell culture flasks by washing three times with 1×PBS and adding an appropriate amount of 0.25% TrypLE™ Express Enzyme (1×), no phenol red (ThermoFisher cat #12604013) to create a thin layer over the cells. Trypsin was neutralized with media containing serum and proceeded to count the cells.
After counting the cells, the concentration of the cell solution was adjusted to seed a total of 750 cells per well in 50 μL of complete media into 384-well tissue culture treated plates. In a biological safety cabinet, cells were seeded using a sterilized small stainless steel tipped cassette on a Multi-drop Combi. Between different cell lines, the tubing of the cassette was flushed with 1× sterile PBS for 10 seconds. Alternatively, cells can be seeded using a Multi-flow located within a Hepa filtered robotics room using either a sterilized small sapphire jewel tipped cassette and the peristatic pump, or the attached syringe pump, depending on volume of plates per cell line needed. The plates were placed in an incubator set at 37° C., with 5% CO2 and 95% relative humidity. A 10-point, 3-fold serial dilutions of compounds in 100% DMSO was prepared on a liquid handling robot with a 10 mM top concentration. 100 nL/well in three assay plates/1 compound was dispensed to source plate, with the highest concentration at 20 μM. After addition of compound was complete, plates were placed into an incubator at 37° C., with 5% CO2 and 95% relative humidity for 3 d. An adequate volume of CellTiter-Glo® (Promega #G7571) detection reagent was pre-warmed to RT or in a 37° C. H2O bath. 25 μL of the reagent was added to each well using either a Multi-drop Combi or MultiFlo and incubate at RT for at least 15 min. Luminesce was captured on a plate luminometer such as an Envision or View Lux to measure Day 0 time point both select cell lines. LUM plus, gain 3500, 0.1 s and focal height 12.5 mm on PheraStar reader. At Day 3, an adequate volume of CellTiter-Glo® detection reagent was pre-warmed at RT or in a 37° C. H2O bath. A total of 25 μL of the reagent was added to each well using either a Multi-drop Combi or MultiFlo and incubate at RT for at least 15 min. Luminesce was captured on a plate luminometer such as an Envision or View Lux to measure Day 3 time point both select cell lines. LUM plus, gain 3500, 0.1 s and focal height 12.5 mm on PheraStar reader. Raw data was extracted from the instrument and all fields containing test compounds were normalized to the average of all wells containing DMSO alone from Day 3 as neutral control and Day 0 starting numbers. From this value, percent growth inhibition of each compound was calculated. Dose response curves and growth inhibitory IC50s were generated by graphing the normalized data values against the compound concentration using a program such as GraphPad™ or Excel Fit.

[1] = molecular target: T1, nanobit-large-bit-ERK2 and nanobit-small-bit-PEA15 in WM793 cells (Homo sapiens, UniProt P28482); test: NanoBiT assay; format: cell-based; conditions: WM793 nanobit stable cell line, overnight incubation; read-out: NanoBiT qualified absolute AC50
T1 construct: expressed in transfected cells
T1 sequence (P28482 whole entry): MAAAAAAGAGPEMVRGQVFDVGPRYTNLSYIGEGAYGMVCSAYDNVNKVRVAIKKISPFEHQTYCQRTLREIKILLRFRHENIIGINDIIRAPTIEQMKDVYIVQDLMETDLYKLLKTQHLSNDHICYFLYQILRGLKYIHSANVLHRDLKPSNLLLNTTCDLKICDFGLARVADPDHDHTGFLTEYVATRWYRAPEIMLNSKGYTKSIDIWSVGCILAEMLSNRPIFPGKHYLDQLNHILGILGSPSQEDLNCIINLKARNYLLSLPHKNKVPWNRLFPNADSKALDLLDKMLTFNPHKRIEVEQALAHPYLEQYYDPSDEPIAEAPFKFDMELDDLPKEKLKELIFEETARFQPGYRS
Description: as §1
A nanobit stable cell line was generated using WM793 cells with nanobit-large-bit-ERK2 and nanobit-small-bit-PEA15. […] In a biological safety cabinet, cells were seeded using a sterilized small stainless steel tipped cassette on a Multi-drop Combi. Between different cell lines, the tubing of the cassette was flushed with 1× sterile PBS for 10 s. Alternatively, cells can be seeded using a Multi-flow located within a Hepa filtered robotics room using either a sterilized small sapphire jewel tipped cassette and the peristatic pump, or the attached syringe pump, depending on volume of plates per cell line needed. The plates were placed in an incubator set at 37° C., with 5% CO2 and 95% relative humidity. A 10-point, 3-fold serial dilution of compounds was prepared in 100% DMSO on a liquid handling robot with a 10 mM top concentration. 90 nl/well was dispensed in three assay plates/1 compound source plate, with the highest concentration at 30 μM. After addition of compound was complete, the plates were placed into an incubator at 37° C., with 5% CO2 and 95% relative humidity for overnight. Luminescence was captured on a plate luminometer such as an Envision or View Lux to measure Day 0 time point both select cell lines. LUM plus, gain 3500, 0.1 s and focal height 12.5 [mm] on PheraStar reader. The raw data was extracted from the instrument and normalized all fields containing test compounds to the average of all wells containing DMSO alone as neutral control. From this value, the percent growth inhibition was calculated for each compound. Dose response curves and inhibitory IC50s were generated by graphing the normalized data values against the compound concentration using either a program such as GraphPad™ or Excel Fit.

[2] = molecular target: T2, ERK2[2-360(p-T185/p-Y187)]-Avi (Homo sapiens, UniProt P28482); test: Biochemical assay (HTRF competition assay); format: binding; conditions: HTRF competition with Example 15 probe, overnight at RT; read-out: Biochemical qualified AC50
T2 construct: 400 pM ERK2[2-360(p-T185/p-Y187)]-Avi was added to the plate
T2 sequence (P28482 2-360 limits assumed): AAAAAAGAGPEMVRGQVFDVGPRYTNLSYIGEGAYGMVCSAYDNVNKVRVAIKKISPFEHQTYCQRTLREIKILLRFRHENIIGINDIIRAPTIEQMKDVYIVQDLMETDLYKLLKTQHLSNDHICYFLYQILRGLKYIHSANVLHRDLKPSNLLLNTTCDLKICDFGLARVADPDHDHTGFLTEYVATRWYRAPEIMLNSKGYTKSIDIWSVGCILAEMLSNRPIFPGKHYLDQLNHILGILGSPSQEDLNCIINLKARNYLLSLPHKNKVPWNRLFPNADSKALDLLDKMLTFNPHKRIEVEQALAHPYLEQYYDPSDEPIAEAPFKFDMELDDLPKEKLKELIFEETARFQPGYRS
Description: The competition assays were performed at RT in a 384-well white polystyrene, flat bottom plate (Greiner #784075) using a final reaction volume of 15 μL and the following assay buffer conditions: 50 mM MOPS, pH 7.2, 10 mM MgCl2, 0.5 mM TCEP, 0.01% Triton-X-100. 75 nL of a 10 mM compound solution in DMSO or 100% DMSO (12 point titration, final concentration: 50 μM-300 pM; final DMSO: 0.5%) was added using an acoustic liquid handler (Echo, Beckman Coulter) to wells containing 7.5 μL of 1-(6-((R)-3-(1-(5-chloro-1-((tetrahydro-2H-pyran-4-yl)methyl)-1H-indole-3-carbonyl)-4-(4-fluorophenyl)piperidine-4-carboxamido)pyrrolidin-1-yl)-6-oxohexyl)-3,3-dimethyl-5-sulfo-2-((1E,3E)-5-((E)-1,3,3-trimethyl-5-sulfoindolin-2-ylidene)penta-1,3-dien-1-yl)-3H-indol-1-ium (Example 15); 7.5 μL 400 pM SA-Tb (Cisbio, 610SATLB) and 400 pM ERK2[2-360(p-T185/p-Y187)]-Avi was added to the plate and incubated overnight at RT. HTRF signal was measured using a microplate reader (PheraStar, BMG Labtech) with excitation and emission wavelengths of […], respectively. The inhibitor dose-response curves were analyzed from the HTRF ratio signal using normalized IC50 regression curve fitting with control-based normalization.

Compound	AC50 (WM793 cells) [nM]	AC50 [1] [nM]	AC50 [2] [nM]
C[C@H]1C[C@@H](C(=O)O)CC[C@@H]1NC(=O)C1(c2ccc(F)cc2)CCN(C(=O)n2c3c(c4ccc(F)cc42)[C@@H](c2ccccc2)OCC3)CC1 (single isomer, unassigned) [Example 10b]	10000	12000	37
C[C@H]1C[C@@H](C(=O)O)CC[C@@H]1NC(=O)[C@@]1(c2ccc(F)cc2)CCN(C(=O)n2c3c(c4ccc(F)cc42)C(C2CCOCC2)OCC3)[C@@H](C)C1 (single isomer, unassigned) [Example 10]	40	280	< 0.28
CN1CC[C@@H](NC(=O)C2(c3ccc(F)cc3)CCN(C(=O)c3c(C=O)n(CC4CCOCC4)c4ccc(Cl)cc34)CC2)C1 [Example 11f]	140	–	–
CN1CC[C@@H](NC(=O)C2(c3ccc(F)cc3)CCN(C(=O)c3cn(CC4CCOCC4)c4ccc(Br)cc34)CC2)C1 [Example 11, (R)-1-(5-bromo-1-((tetrahydro-2H-pyran-4-yl)methyl)-1H-indole-3-carbonyl)-4-(4-fluorophenyl)-N-(1-methylpyrrolidin-3-yl)piperidine-4-carboxamide]	2700	4900	18
COCCc1c(C[C@H]2CC[C@H](OC(C)C)CC2)c2ccc(Cl)cc2n1C(=O)N1CCC(C(=O)N[C@H]2CC[C@H](C(=O)O)C[C@@H]2C)(c2ccc(F)cc2)CC1 [Example 1g]	93	210	< 0.28
CN1CC(NC(=O)C2(c3ccc(F)cc3)CCN(C(=O)c3c(C=O)n(CC4CCOCC4)c4ccc(Cl)cc34)CC2)C1 [Example 11e]	290	–	–
Cc1c(CC2CCC(OC(C)C)CO2)c2ccc(F)cc2n1C(=O)N1CC[C@@](C(=O)N[C@H]2CC[C@H](C(=O)O)C[C@@H]2C)(c2ccc(F)cc2)C[C@@H]1C (stereo partly drawn) [Example 1i]	15	31	< 0.28
COCCc1c(C[C@H]2CC[C@H](OC(C)C)CC2)c2ccc(F)cc2n1C(=O)N1CCC(C(=O)N[C@H]2CC[C@H](C(=O)O)C[C@@H]2C)(c2ccc(F)cc2)CC1 [Example 3, (1S,3S,4S)-4-(1-(6-fluoro-3-(((1r,4S)-4-isopropoxycyclohexyl)methyl)-2-(2-methoxyethyl)-1H-indole-1-carbonyl)-4-(4-fluorophenyl)piperidine-4-carboxamido)-3-methylcyclohexane-1-carboxylic acid]	60	46	0.5
CC(C)O[C@H]1CC[C@H](C2CN(C(=O)N3CC[C@@](C(=O)N[C@H]4CC[C@H](C(=O)O)C[C@@H]4C)(c4ccc(F)cc4)C[C@@H]3C)c3cc(F)ccc32)CC1 (single isomer, unassigned) [Example 4c]	410	1200	3.9
CN1C[C@@H](F)[C@@H](NC(=O)C2(c3ccc(F)cc3)CCN(C(=O)c3c(C#N)n(CC4CCOCC4)c4ccc(Cl)cc34)CC2)C1 [Example 11j]	730	–	0.97
CN1C[C@@H](F)[C@@H](NC(=O)C2(c3ccc(F)cc3)CCN(C(=O)c3c(C(F)F)n(CC4CCOCC4)c4ccc(Cl)cc34)CC2)C1 [Example 11i]	54	–	0.72
C[C@H]1[C@@H](NC(=O)C2(c3ccc(F)cc3)CCN(C(=O)c3c(C=O)n(CC4CCOCC4)c4ccc(Cl)cc34)CC2)CN1C [Example 11c]	17	–	–
CN1CC[C@@H](NC(=O)C2(c3ccccc3)CCN(C(=O)c3c(C=O)n(CC4CCOCC4)c4ccc(Cl)cc34)CC2)C1 [Example 11a]	300	–	0.87
O=Cc1c(C(=O)N2CCC(C(=O)N[C@H]3CNC[C@H]3F)(c3ccc(F)cc3)CC2)c2cc(Cl)ccc2n1CC1CCOCC1 [Example 14, 1-(5-chloro-2-formyl-1-((tetrahydro-2H-pyran-4-yl)methyl)-1H-indole-3-carbonyl)-4-(4-fluorophenyl)-N-((3S,4R)-4-fluoropyrrolidin-3-yl)piperidine-4-carboxamide]	120	–	0.48
CN1CCC(NC(=O)C2(c3ccc(F)cc3)CCN(C(=O)c3c(C=O)n(CC4CCOCC4)c4ccc(Cl)cc34)CC2)CC1 [Example 11d]	430	–	–
